From BindingDB's records for doi:10.1016/s0960-894x(98)00240-6 (Boehringer Ingelheim (Canada), 1999)

Test: Inhibitory activity against porcine pancreatic elastase(PPE)

SMILES | IC50 [µM]
CC(C)C[C@@H](COC1CC(=O)N1C(=O)NCc1ccccc1)NC(=O)[C@@H](NC(=O)OC(C)(C)C)C(C)(C)C (stereo partly drawn) [{(S)-1-[(S)-1-(1-Benzylcarbamoyl-4-oxo-azetidin-2-yloxymethyl)-3-methyl-butylcarbamoyl]-2,2-dimethyl-propyl}-carbamic acid tert-butyl ester] | > 75
O=C1CC(SCc2ccccn2)N1C(=O)N[C@H](CO)c1ccccc1 (stereo partly drawn) [2-Oxo-4-(pyridin-2-ylmethylsulfanyl)-azetidine-1-carboxylic acid ((S)-2-hydroxy-1-phenyl-ethyl)-amide] | > 75
C[C@@H](NC(=O)N1C(=O)CC1SCc1cccnc1)c1ccccc1 (stereo partly drawn) [2-Oxo-4-(pyridin-3-ylmethylsulfanyl)-azetidine-1-carboxylic acid ((R)-1-phenyl-ethyl)-amide] | 65
C[C@@H](NC(=O)N1C(=O)CC1SCc1ccncc1)c1ccccc1 (stereo partly drawn) [2-Oxo-4-(pyridin-4-ylmethylsulfanyl)-azetidine-1-carboxylic acid ((R)-1-phenyl-ethyl)-amide] | 21
CC[C@@H](NC(=O)N1C(=O)[C@@H](C)[C@@H]1SCc1ccccn1)c1ccccc1 [(3R,4S)-3-Methyl-2-oxo-4-(pyridin-2-ylmethylsulfanyl)-azetidine-1-carboxylic acid ((R)-1-phenyl-propyl)-amide] | 0.73
